The values below come from patent US20240043435A1, “TYK-2 INHIBITOR” (BEIGENE, LTD., priority 2020, published 2024).

For experiment [1], the target named is T1, TYK2-JH2 (aa 575-869, in-house) protein (Homo sapiens, UniProt P29597).
T1 construct: TYK2-JH2 (aa 575-869, in-house) protein; made in house
The experiment in a line: TYK2-JH2 biochemical assay (HTRF probe displacement). The class given is binding. The note with it: Biochemical assay; read-out: TYK2-JH2 IC50. Put shortly:
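HTRF probe-displacement format: compound dilutions (10 points, 5-fold, from 500 uM in DMSO at 500×) were combined with 0.2 nM TYK2-JH2 protein for 0.5 h at room temperature in HEPES pH 7.5 buffer with MgCl2, BSA, DTT and Brij-35. Percent inhibition came from the 615/665 nm fluorescence ratio, fitted to a four-parameter logistic for IC50.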

The subject of experiment [2] is JAK2, TYK2/p-STAT4 (Tyr693) activated by IL-12 in NK-92 cell line. The experiment in a line: IL-12-JAK2, TYK2/p-STAT4 (Tyr693) inhibition IC50 cellular assay. The class given is cell-based. The note with it: NK92, Cellular assay; read-out: pSTAT4/IL-12 IC50. Put shortly: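 p-STAT4 (Tyr693) in lysates was measured by AlphaLISA SureFire Ultra after a 30 min IL-12 challenge (40 ng/ml final) at 37° C. Overnight-starved, IL-2-free NK-92 cells had been pretreated 1 h with compound at 10000 to 0.61 nM (4-fold, 8 points). IC50 values came from four-parameter logistic fitting.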

In experiment [3] the test system is pSTAT5/GM-CSF. The experiment is described as follows: pSTAT5/GM-CSF cellular assay (JAK2 selectivity). The class given is cell-based. The note with it: for Selectivity fold (TYK2/JAK2): pSTAT5/GM-CSF IC50 over pSTAT4/IL-12 IC50.

Structures are written as SMILES.

T1 sequence (P29597 575-869): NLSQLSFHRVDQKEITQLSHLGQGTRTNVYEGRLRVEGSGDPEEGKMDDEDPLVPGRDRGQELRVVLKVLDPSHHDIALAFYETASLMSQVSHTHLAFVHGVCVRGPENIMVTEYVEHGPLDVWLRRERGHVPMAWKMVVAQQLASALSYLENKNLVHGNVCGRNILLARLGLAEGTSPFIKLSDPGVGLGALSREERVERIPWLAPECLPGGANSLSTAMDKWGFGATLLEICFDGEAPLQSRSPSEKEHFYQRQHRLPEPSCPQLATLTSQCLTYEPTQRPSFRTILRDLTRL

Consider `CCn1ccc(-c2cnc(NC(C)=O)cc2Nc2cc(OC(C)C)cc(S(C)(=O)=O)n2)n1` [Example M6, N-(5-(1-ethyl-1H-pyrazol-3-yl)-4-((4-isopropoxy-6-(methylsulfonyl)pyridin-2-yl)amino)pyridin-2-yl)acetamide], for which the values for the IC50 in experiment [1], in experiment [2] and in experiment [3] were 0.032 nM, 1.21 nM and greater than 10 µM, respectively. For the same compound, the “Selectivity fold (TYK2/JAK2)” value in experiment [3] is listed as greater than 8264 fold.

Take `CCn1ccc(-c2cnc(NC(C)=O)cc2Nc2cc(COC)cc(S(C)(=O)=O)n2)n1` [Example M7, N-(5-(1-ethyl-1H-pyrazol-3-yl)-4-((4-(methoxymethyl)-6-(methylsulfonyl)pyridin-2-yl)amino)pyridin-2-yl)acetamide]: the IC50 in experiment [1] is 0.026 nM; in experiment [2], 0.537 nM; in experiment [3] it was greater than 10 µM. The “Selectivity fold (TYK2/JAK2)” value in experiment [3] is listed as greater than 18621 fold.

With `CCn1ccc(-c2cnc(NC(C)=O)cc2Nc2cccc(S(C)(=O)=O)c2)n1` [Example M8, N-(5-(1-ethyl-1H-pyrazol-3-yl)-4-((3-(methylsulfonyl)phenyl)amino)pyridin-2-yl)acetamide], the values for the IC50 in experiment [1], in experiment [2] and in experiment [3] were 0.04 nM, 1.64 nM and greater than 10 µM, respectively. Besides, in experiment [3], the “Selectivity fold (TYK2/JAK2)” value is reported as greater than 6097 fold.

As to `CCn1ccc(-c2cnc(NC(C)=O)cc2Nc2cc(OC)cc(S(C)(=O)=O)c2)n1` [Example M9, N-(5-(1-ethyl-1H-pyrazol-3-yl)-4-((3-methoxy-5-(methylsulfonyl)phenyl)amino)pyridin-2-yl)acetamide], the IC50 is 0.035 nM in experiment [1], 7.06 nM in experiment [2] and greater than 10 µM in experiment [3]. The “Selectivity fold (TYK2/JAK2)” value in experiment [3] was greater than 1416 fold.

Consider `CCn1ccc(-c2cnc(NC(C)=O)cc2Nc2cc(C)cc(S(C)(=O)=O)c2)n1` [Example M11, N-(5-(1-ethyl-1H-pyrazol-3-yl)-4-((3-methyl-5-(methylsulfonyl)phenyl)amino)pyridin-2-yl)acetamide], for which the IC50 in experiment [1] was 0.034 nM; in experiment [2] it was 9.03 nM; in experiment [3] it was greater than 10 µM. Further, the “Selectivity fold (TYK2/JAK2)” value in experiment [3] was greater than 1107 fold.

Regarding `CCn1ccc(-c2cnc(NC(C)=O)cc2Nc2cc(COC)cc(S(C)(=O)=O)c2)n1` [Example M12, N-(5-(1-ethyl-1H-pyrazol-3-yl)-4-((3-(methoxymethyl)-5-(methylsulfonyl)phenyl)amino)pyridin-2-yl)acetamide], the IC50 is 0.03 nM in experiment [1], 9.12 nM in experiment [2] and greater than 10 µM in experiment [3]. Moreover, in experiment [3], the “Selectivity fold (TYK2/JAK2)” value is reported as greater than 1096 fold.

As for `CCn1ccc(-c2cnc(NC(C)=O)cc2Nc2cc(OCCOC)cc(S(C)(=O)=O)c2)n1` [Example M14, N-(5-(1-ethyl-1H-pyrazol-3-yl)-4-((3-(2-methoxyethoxy)-5-(methylsulfonyl)phenyl)amino)pyridin-2-yl)acetamide], the IC50 in experiment [1] is 0.03 nM; in experiment [2], 9.46 nM; in experiment [3] it was greater than 10 µM. The “Selectivity fold (TYK2/JAK2)” value in experiment [3] is on record as greater than 1057 fold.

For the compound `CCn1ccc(-c2cnc(NC(C)=O)cc2Nc2cc(OCCO)cc(S(C)(=O)=O)c2)n1` [Example M15, N-(5-(1-ethyl-1H-pyrazol-3-yl)-4-((3-(2-hydroxyethoxy)-5-(methylsulfonyl)phenyl)amino)pyridin-2-yl)acetamide], the IC50 is 0.048 nM in experiment [1], 10.2 nM in experiment [2] and greater than 10 µM in experiment [3]. In experiment [3], the “Selectivity fold (TYK2/JAK2)” value was greater than 977 fold.

For `CCn1ccc(-c2cnc(NC(C)=O)cc2Nc2cc(OC3CCCC3)cc(S(C)(=O)=O)n2)n1` [Example M17, N-(4-((4-(cyclopentyloxy)-6-(methylsulfonyl)pyridin-2-yl)amino)-5-(1-ethyl-1H-pyrazol-3-yl)pyridin-2-yl)acetamide], the IC50 in experiment [1] is 0.041 nM; in experiment [2], 1.09 nM; in experiment [3], greater than 10 µM. For the same compound, in experiment [3], the “Selectivity fold (TYK2/JAK2)” value is reported as greater than 9174 fold.

`CCOc1cc(Nc2cc(NC(C)=O)ncc2-c2ccn(CC)n2)nc(S(C)(=O)=O)c1` [Example M18, N-(4-((4-ethoxy-6-(methylsulfonyl)pyridin-2-yl)amino)-5-(1-ethyl-1H-pyrazol-3-y)pyridin-2-yl)acetamide]: the IC50 is 0.026 nM in experiment [1], 0.989 nM in experiment [2] and greater than 10 µM in experiment [3]. In experiment [3], the “Selectivity fold (TYK2/JAK2)” value is reported as greater than 10111 fold.

Turning to `CCn1ccc(-c2cnc(NC(C)=O)cc2Nc2cc(OCCO)cc(S(C)(=O)=O)n2)n1` [Example M19, N-(5-(1-ethyl-1H-pyrazol-3-yl)-4-((4-(2-hydroxyethoxy)-6-(methylsulfonyl)pyridin-2-yl)amino)pyridin-2-yl)acetamide], the IC50 was 0.032 nM in experiment [1], 2.55 nM in experiment [2] and greater than 10 µM in experiment [3]. In addition, the “Selectivity fold (TYK2/JAK2)” value in experiment [3] is greater than 3921 fold.

Regarding `CCn1ccc(-c2cnc(NC(C)=O)cc2Nc2cc(OCCOC)cc(S(C)(=O)=O)n2)n1` [Example M20, N-(5-(1-ethyl-1H-pyrazol-3-yl)-4-((4-(2-methoxyethoxy)-6-(methylsulfonyl)pyridin-2-yl)amino)pyridin-2-yl)acetamide], the IC50 was 0.062 nM in experiment [1], 1.01 nM in experiment [2] and greater than 10 µM in experiment [3]. In addition, in experiment [3], the “Selectivity fold (TYK2/JAK2)” value is greater than 9900 fold.

Take `CCn1ccc(-c2cnc(NC(C)=O)cc2Nc2nc(S(C)(=O)=O)ccc2OC(C)C)n1` [Example M21, N-(5-(1-ethyl-1H-pyrazol-3-yl)-4-((3-isopropoxy-6-(methylsulfonyl)pyridin-2-yl)amino)pyridin-2-yl)acetamide]: the figures for the IC50 in experiment [1], in experiment [2] and in experiment [3] were 0.035 nM, 1.69 nM and greater than 10 µM, respectively. In addition, the “Selectivity fold (TYK2/JAK2)” value in experiment [3] is reported as greater than 5917 fold.

In the case of `CC(=O)Nc1cc(Nc2cccc(S(C)(=O)=O)n2)c(-c2ccn(C(C)C)n2)cn1` [Example M22, N-(5-(1-isopropyl-1H-pyrazol-3-yl)-4-((6-(methylsulfonyl)pyridin-2-yl)amino)pyridin-2-yl)acetamide], the IC50 worked out at 0.027 nM in experiment [1], 0.316 nM in experiment [2] and 0.532 µM in experiment [3]. Also, in experiment [3], the “Selectivity fold (TYK2/JAK2)” value came out at 1683 fold.

As to `CC(=O)Nc1cc(Nc2cc(OC(C)C)cc(S(C)(=O)=O)n2)c(-c2ccn(C(C)C)n2)cn1` [Example M23, N-(4-((4-isopropoxy-6-(methylsulfonyl)pyridin-2-yl)amino)-5-(1-isopropyl-1H-pyrazol-3-yl)pyridin-2-yl)acetamide], the IC50 in experiment [1] turned out to be 0.031 nM; in experiment [2], 1.08 nM; in experiment [3] it was 3.75 µM. For the same compound, the “Selectivity fold (TYK2/JAK2)” value in experiment [3] was 3471 fold.

As for `COCCOc1cc(Nc2cc(NC(C)=O)ncc2-c2ccn(C(C)C)n2)nc(S(C)(=O)=O)c1` [Example M24, N-(5-(1-isopropyl-1H-pyrazol-3-yl)-4-((4-(2-methoxyethoxy)-6-(methylsulfonyl)pyridin-2-yl)amino)pyridin-2-yl)acetamide], the IC50 in experiment [1] amounted to 0.032 nM; in experiment [2], 0.487 nM; in experiment [3], 2.18 µM. In addition, the “Selectivity fold (TYK2/JAK2)” value in experiment [3] is listed as 4466 fold.
